According to patent US20090105270A1, “Kinase inhibition and anticancer therapy” (priority 2007, published 2009):

Legend:
Ret(h) = biological target: T1, Ret(h) (Homo sapiens, UniProt P07949); test: Upstate kinase activity inhibition assay Ret(h); format: biochemical; details: 40 min; read-out: percentage of enzyme activity that remains
T1 construct: purchased Upstate (KinaseProfiler service)

ALK4(h) = ALK4(h) (Homo sapiens, UniProt P36896); test: Upstate kinase activity inhibition assay ALK4(h); details: 40 min, read-out: percentage of enzyme activity that remains
Chain of ALK4(h) (P36896 24-505): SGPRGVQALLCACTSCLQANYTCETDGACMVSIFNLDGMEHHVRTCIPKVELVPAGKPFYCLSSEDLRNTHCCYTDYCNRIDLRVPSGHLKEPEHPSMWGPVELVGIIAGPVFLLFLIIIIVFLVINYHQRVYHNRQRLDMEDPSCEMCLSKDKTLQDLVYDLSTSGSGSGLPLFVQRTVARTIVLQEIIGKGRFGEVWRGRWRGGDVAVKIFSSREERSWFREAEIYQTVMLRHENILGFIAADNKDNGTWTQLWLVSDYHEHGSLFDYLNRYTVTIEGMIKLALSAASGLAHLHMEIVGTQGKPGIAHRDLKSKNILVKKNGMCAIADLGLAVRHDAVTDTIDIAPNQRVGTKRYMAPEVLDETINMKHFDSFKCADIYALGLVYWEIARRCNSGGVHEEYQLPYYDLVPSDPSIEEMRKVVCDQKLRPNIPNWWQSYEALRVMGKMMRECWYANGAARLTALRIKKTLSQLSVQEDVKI

PDGFRβ(h) = biological target: T2, PDGFRβ(h) (Homo sapiens, UniProt P09619); test: Upstate kinase activity inhibition assay PDGFRβ(h); format: biochemical; details: 40 min; read-out: percentage of enzyme activity that remains
T2 construct: purchased Upstate (KinaseProfiler service)

NLK (h) = NLK (h) (Homo sapiens, UniProt Q9UBE8); test: Upstate kinase activity inhibition assay NLK (h); details: 40 min, read-out: percentage of enzyme activity that remains
EphA2(h) = EphA2(h) (Homo sapiens, UniProt P29317); test: Upstate kinase activity inhibition assay EphA2(h); details: 40 min, read-out: percentage of enzyme activity that remains
PKG1α(h) = biological target: T3, PKG1α(h) (Homo sapiens, UniProt Q13976); test: Upstate kinase activity inhibition assay PKG1α(h); format: biochemical; details: 40 min; read-out: percentage of enzyme activity that remains
T3 construct: purchased Upstate (KinaseProfiler service)

PAK6(h) = PAK6(h) (Homo sapiens, UniProt Q9NQU5); test: Upstate kinase activity inhibition assay PAK6(h); details: 40 min, read-out: percentage of enzyme activity that remains
Chain of PAK6(h) (Q9NQU5 whole entry): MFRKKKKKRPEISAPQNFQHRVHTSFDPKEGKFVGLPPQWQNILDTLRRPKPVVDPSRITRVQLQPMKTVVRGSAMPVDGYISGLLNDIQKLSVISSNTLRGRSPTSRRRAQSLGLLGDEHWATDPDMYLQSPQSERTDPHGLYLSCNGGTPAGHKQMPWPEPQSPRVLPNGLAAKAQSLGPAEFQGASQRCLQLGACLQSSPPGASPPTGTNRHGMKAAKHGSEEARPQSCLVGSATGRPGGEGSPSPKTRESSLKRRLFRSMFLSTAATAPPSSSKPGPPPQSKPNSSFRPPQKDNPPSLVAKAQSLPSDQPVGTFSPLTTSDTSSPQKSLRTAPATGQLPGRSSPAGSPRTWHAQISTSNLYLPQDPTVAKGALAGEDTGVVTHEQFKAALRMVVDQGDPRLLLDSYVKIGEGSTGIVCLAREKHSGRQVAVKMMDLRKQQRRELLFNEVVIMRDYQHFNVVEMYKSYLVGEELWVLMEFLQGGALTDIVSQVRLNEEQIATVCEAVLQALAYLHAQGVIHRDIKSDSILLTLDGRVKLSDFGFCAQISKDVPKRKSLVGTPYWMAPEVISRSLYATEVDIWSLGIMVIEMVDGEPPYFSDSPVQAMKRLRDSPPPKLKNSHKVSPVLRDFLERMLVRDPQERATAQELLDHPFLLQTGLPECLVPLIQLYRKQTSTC

EphB2(h) = EphB2(h) (Homo sapiens, UniProt P29323); test: Upstate kinase activity inhibition assay EphB2(h)
c-RAF(h) = biological target: T4, c-RAF(h) (Homo sapiens, UniProt P04049, Y340D/Y341D); test: Upstate kinase activity inhibition assay c-RAF(h); format: biochemical; details: 40 min; read-out: percentage of enzyme activity that remains
T4 construct: purchased Upstate (KinaseProfiler service)
T4 sequence (P04049 306-648 Y340D/Y341D limits assumed): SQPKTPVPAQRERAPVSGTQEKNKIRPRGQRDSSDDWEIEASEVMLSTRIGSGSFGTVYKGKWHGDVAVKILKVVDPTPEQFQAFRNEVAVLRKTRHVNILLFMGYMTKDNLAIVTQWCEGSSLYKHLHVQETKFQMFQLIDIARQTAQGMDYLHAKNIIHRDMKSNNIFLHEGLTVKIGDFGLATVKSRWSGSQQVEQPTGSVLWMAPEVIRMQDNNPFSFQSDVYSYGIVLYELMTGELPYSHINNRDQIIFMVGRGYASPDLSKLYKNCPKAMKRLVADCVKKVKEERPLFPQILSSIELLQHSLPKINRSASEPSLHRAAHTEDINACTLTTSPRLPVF

Met(h) = Met(h) (Homo sapiens, UniProt P08581); test: Upstate kinase activity inhibition assay Met(h)
Chain of Met(h) (P08581 25-1390): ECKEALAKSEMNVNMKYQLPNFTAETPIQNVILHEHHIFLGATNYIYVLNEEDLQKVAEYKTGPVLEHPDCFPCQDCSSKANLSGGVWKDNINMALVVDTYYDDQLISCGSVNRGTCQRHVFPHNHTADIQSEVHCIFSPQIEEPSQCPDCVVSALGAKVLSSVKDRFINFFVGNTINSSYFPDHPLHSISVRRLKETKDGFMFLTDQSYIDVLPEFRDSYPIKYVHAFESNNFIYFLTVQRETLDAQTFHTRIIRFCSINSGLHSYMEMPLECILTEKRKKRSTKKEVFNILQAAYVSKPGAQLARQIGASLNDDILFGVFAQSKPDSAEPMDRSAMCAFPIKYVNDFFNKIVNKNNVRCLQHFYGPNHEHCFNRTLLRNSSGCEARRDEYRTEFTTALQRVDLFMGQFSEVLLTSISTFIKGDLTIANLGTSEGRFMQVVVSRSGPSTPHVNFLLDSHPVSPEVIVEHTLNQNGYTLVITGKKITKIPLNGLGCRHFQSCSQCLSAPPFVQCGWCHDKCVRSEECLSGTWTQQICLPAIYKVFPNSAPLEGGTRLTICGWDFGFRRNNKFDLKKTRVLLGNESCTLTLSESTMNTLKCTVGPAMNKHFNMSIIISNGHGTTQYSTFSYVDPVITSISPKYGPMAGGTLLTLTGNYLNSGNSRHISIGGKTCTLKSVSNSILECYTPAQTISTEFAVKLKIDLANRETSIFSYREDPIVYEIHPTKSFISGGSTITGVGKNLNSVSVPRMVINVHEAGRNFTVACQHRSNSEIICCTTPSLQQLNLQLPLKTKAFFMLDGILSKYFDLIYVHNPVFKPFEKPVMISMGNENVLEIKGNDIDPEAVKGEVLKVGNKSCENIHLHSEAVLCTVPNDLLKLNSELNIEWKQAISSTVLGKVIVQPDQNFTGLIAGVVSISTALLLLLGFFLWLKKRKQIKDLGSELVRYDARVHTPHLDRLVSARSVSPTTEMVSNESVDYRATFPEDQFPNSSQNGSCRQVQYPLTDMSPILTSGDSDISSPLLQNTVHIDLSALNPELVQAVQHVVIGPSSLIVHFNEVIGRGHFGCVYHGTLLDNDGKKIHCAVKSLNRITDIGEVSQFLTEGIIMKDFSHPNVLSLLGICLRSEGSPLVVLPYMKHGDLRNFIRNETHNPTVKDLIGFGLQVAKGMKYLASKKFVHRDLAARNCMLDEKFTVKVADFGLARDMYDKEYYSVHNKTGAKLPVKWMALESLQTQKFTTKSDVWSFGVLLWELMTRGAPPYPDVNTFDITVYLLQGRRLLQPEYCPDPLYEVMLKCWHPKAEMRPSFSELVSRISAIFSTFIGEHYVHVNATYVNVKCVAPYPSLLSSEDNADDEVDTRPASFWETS

Snk(h) = Snk(h) (Homo sapiens, UniProt Q9NYY3); test: Upstate kinase activity inhibition assay Snk(h)
Chain of Snk(h) (Q9NYY3 whole entry): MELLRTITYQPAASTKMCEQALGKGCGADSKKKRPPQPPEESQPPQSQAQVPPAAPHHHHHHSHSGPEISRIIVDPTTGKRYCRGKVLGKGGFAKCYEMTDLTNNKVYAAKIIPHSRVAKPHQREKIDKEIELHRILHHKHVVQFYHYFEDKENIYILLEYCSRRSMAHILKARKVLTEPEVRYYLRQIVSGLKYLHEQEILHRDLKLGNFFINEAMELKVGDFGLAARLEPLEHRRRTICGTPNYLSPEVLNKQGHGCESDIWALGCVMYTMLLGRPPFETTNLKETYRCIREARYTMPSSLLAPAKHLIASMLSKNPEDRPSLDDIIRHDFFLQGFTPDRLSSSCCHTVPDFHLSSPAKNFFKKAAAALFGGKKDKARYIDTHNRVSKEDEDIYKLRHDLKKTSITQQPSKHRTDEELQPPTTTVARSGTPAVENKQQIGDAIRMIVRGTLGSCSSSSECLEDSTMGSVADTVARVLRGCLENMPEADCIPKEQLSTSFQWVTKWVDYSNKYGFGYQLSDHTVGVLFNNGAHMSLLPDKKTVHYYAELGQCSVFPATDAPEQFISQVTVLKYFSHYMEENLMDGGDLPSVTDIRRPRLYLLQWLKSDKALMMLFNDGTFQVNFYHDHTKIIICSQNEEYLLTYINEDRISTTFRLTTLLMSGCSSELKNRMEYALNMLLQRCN

MEK1(h) = MEK1(h) (Homo sapiens, UniProt Q02750); test: Upstate kinase activity inhibition assay MEK1(h); details: 40 min, read-out: percentage of enzyme activity that remains
DAPK1(h) = DAPK1(h) (Homo sapiens, UniProt P53355); test: Upstate kinase activity inhibition assay DAPK1(h); details: 40 min, read-out: percentage of enzyme activity that remains
CK2(h) = CK2(h) (Homo sapiens, UniProt P68400); test: Upstate kinase activity inhibition assay CK2(h); details: 40 min, read-out: percentage of enzyme activity that remains
EphB4(h) = biological target: T5, EphB4(h) (Homo sapiens, UniProt P54760); test: Upstate kinase activity inhibition assay EphB4(h); format: biochemical; details: 40 min; read-out: percentage of enzyme activity that remains
T5 construct: purchased Upstate (KinaseProfiler service)

Arg(h) = Arg(h) (Homo sapiens, UniProt P42684); test: Upstate kinase activity inhibition assay Arg(h); details: 40 min, read-out: percentage of enzyme activity that remains
PKA(h) = PKA(h) (Homo sapiens, UniProt P17612); test: Upstate kinase activity inhibition assay PKA(h); format: biochemical; details: 40 min; read-out: percentage of enzyme activity that remains
MINK(h) = biological target: T6, MINK(h) (Homo sapiens, UniProt Q8N4C8); test: Upstate kinase activity inhibition assay MINK(h); format: biochemical; details: 40 min; read-out: percentage of enzyme activity that remains
T6 construct: purchased Upstate (KinaseProfiler service)

JNK2α2(h) = JNK2α2(h) (Homo sapiens, UniProt P45984); test: Upstate kinase activity inhibition assay JNK2α2(h)
RIPK2(h) = RIPK2(h) (Homo sapiens, UniProt O43353); test: Upstate kinase activity inhibition assay RIPK2(h); details: 40 min, read-out: percentage of enzyme activity that remains
PKCζ(h) = PKCζ(h) (Homo sapiens, UniProt Q05513); test: Upstate kinase activity inhibition assay PKCζ(h); details: 40 min, read-out: percentage of enzyme activity that remains
PDGFRα(h) = PDGFRα(h) (Homo sapiens, UniProt P16234); test: Upstate kinase activity inhibition assay PDGFRα(h); details: 40 min, read-out: percentage of enzyme activity that remains
Ron(h) = biological target: T7, Ron(h) (Homo sapiens, UniProt Q04912); test: Upstate kinase activity inhibition assay Ron(h); format: biochemical; details: 40 min; read-out: percentage of enzyme activity that remains
T7 construct: purchased Upstate (KinaseProfiler service)

CDK9/cyclin T1(h) = biological target: T8, CDK9/cyclin T1(h) (Homo sapiens, UniProt P50750); test: Upstate kinase activity inhibition assay CDK9/cyclin T1(h); format: biochemical; details: 40 min; read-out: percentage of enzyme activity that remains
T8 construct: purchased Upstate (KinaseProfiler service)

FGFR3(h) = FGFR3(h) (Homo sapiens, UniProt P22607); test: Upstate kinase activity inhibition assay FGFR3(h); details: 40 min, read-out: percentage of enzyme activity that remains
PKCα(h) = PKCα(h) (Homo sapiens, UniProt P17252); test: Upstate kinase activity inhibition assay PKCα(h); details: 40 min, read-out: percentage of enzyme activity that remains
EphB3(h) = EphB3(h) (Homo sapiens, UniProt P54753); test: Upstate kinase activity inhibition assay EphB3(h); details: 40 min, read-out: percentage of enzyme activity that remains
PRAK(h) = PRAK(h) (Homo sapiens, UniProt Q8IW41); test: Upstate kinase activity inhibition assay PRAK(h); details: 40 min, read-out: percentage of enzyme activity that remains
Chain of PRAK(h) (Q8IW41 whole entry): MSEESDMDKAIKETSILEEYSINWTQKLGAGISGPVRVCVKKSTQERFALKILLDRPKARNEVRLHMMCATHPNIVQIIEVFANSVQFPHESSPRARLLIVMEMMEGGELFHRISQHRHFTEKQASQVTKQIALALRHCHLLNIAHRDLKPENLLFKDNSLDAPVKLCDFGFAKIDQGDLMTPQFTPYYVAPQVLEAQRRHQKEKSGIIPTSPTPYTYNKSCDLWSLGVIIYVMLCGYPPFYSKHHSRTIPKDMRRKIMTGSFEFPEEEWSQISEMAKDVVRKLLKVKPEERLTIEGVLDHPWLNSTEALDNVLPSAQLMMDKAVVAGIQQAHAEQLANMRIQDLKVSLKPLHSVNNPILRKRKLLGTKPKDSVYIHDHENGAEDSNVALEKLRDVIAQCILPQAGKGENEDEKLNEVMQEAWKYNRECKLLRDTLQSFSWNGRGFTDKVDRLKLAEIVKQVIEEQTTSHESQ

Pim-2(h) = biological target: T9, Pim-2(h) (Homo sapiens, UniProt Q9P1W9); test: Upstate kinase activity inhibition assay Pim-2(h); format: biochemical; details: 40 min; read-out: percentage of enzyme activity that remains
T9 construct: purchased Upstate (KinaseProfiler service)
T9 sequence (Q9P1W9 whole entry): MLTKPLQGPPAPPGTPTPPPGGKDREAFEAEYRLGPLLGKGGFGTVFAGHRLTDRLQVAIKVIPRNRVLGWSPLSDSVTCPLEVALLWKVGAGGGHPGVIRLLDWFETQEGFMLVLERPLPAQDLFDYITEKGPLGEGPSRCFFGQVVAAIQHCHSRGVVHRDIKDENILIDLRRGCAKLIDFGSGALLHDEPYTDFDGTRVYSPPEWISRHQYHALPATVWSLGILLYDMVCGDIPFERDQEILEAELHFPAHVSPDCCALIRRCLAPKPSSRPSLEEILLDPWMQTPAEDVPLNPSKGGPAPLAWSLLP

Cc1cc(Nc2cc(N3CCN(C)CC3)nc(Sc3ccc(NC(=O)C4CC4)cc3)n2)n[nH]1 [Compound E, Cyclopropane carboxylic acid {4-[4-(4-methyl-piperazin-1-yl)-6-(5-methyl-2H-pyrazol-3-ylamino)-pyrimidin-2-ylsulphanyl]-phenyl}-amide]
remaining activity at 0.2 µM (Ret(h)): 34%
remaining activity at 4 µM (Ret(h)): 2%
remaining activity at 0.2 µM (ALK4(h)): 103%
remaining activity at 4 µM (ALK4(h)): 124%
remaining activity at 0.2 µM (PDGFRβ(h)): 102%
remaining activity at 4 µM (PDGFRβ(h)): 90%
remaining activity at 0.2 µM (NLK (h)): 105%
remaining activity at 4 µM (NLK (h)): 99%
remaining activity at 0.2 µM (EphA2(h)): 78%
remaining activity at 4 µM (EphA2(h)): 10%
remaining activity at 4 µM (PKG1α(h)): 89%
remaining activity at 0.2 µM (PAK6(h)): 92%
remaining activity at 4 µM (PAK6(h)): 92%
percentage of enzyme activity that remains (EphB2(h); 0.2 μM Compound E): 121%
percentage of enzyme activity that remains (EphB2(h); 4 μM Compound E): 107%
remaining activity at 0.2 µM (c-RAF(h)): 106%
remaining activity at 4 µM (c-RAF(h)): 100%
percentage of enzyme activity that remains (Met(h); 0.2 μM Compound E): 105%
percentage of enzyme activity that remains (Met(h); 4 μM Compound E): 50%
percentage of enzyme activity that remains (Snk(h); 0.2 μM Compound E): 99%
percentage of enzyme activity that remains (Snk(h); 4 μM Compound E): 103%
remaining activity at 0.2 µM (MEK1(h)): 115%
remaining activity at 4 µM (MEK1(h)): 82%
remaining activity at 0.2 µM (DAPK1(h)): 107%
remaining activity at 4 µM (DAPK1(h)): 100%
remaining activity at 0.2 µM (CK2(h)): 100%
remaining activity at 4 µM (CK2(h)): 93%
remaining activity at 0.2 µM (EphB4(h)): 91%
remaining activity at 4 µM (EphB4(h)): 11%
remaining activity at 0.2 µM (Arg(h)): 8%
remaining activity at 4 µM (Arg(h)): -1%
remaining activity at 0.2 µM (PKA(h)): 100%
remaining activity at 4 µM (PKA(h)): 102%
remaining activity at 0.2 µM (MINK(h)): 103%
remaining activity at 4 µM (MINK(h)): 82%
percentage of enzyme activity that remains (JNK2α2(h); 0.2 μM Compound E): 107%
percentage of enzyme activity that remains (JNK2α2(h); 4 μM Compound E): 105%
remaining activity at 0.2 µM (RIPK2(h)): 107%
remaining activity at 4 µM (RIPK2(h)): 105%
remaining activity at 0.2 µM (PKCζ(h)): 107%
remaining activity at 4 µM (PKCζ(h)): 97%
remaining activity at 0.2 µM (PDGFRα(h)): 87%
remaining activity at 0.2 µM (Ron(h)): 95%
remaining activity at 4 µM (Ron(h)): 48%
remaining activity at 0.2 µM (CDK9/cyclin T1(h)): 80%
remaining activity at 4 µM (CDK9/cyclin T1(h)): 84%
remaining activity at 0.2 µM (FGFR3(h)): 87%
remaining activity at 4 µM (FGFR3(h)): 29%
remaining activity at 0.2 µM (PKCα(h)): 115%
remaining activity at 4 µM (PKCα(h)): 105%
remaining activity at 0.2 µM (EphB3(h)): 99%
remaining activity at 4 µM (EphB3(h)): 89%
remaining activity at 0.2 µM (PRAK(h)): 114%
remaining activity at 4 µM (PRAK(h)): 109%
remaining activity at 0.2 µM (Pim-2(h)): 110%
remaining activity at 4 µM (Pim-2(h)): 124%
